Marks after values point to notes of the source that are not given here.
Assay: Biodistribution of radioactivity in rat tissues after intravenous injection
Format: in vivo
Settings: for Radioactivity in Cerebellum / Radioactivity in Entorhinal cortex / Radioactivity in Fat / Radioactivity in Heart (ventricle) / Radioactivity in Hippocampus / Radioactivity in Hypothalamus / Radioactivity in Inferior collicull / Radioactivity in Kidney / Radioactivity in Large intestine / Radioactivity in Lge. intestine content / Radioactivity in Liver / Radioactivity in Lung / Radioactivity in Medulla with Pons / Radioactivity in Olfactory bulbs / Radioactivity in Olfactory tubercles / Radioactivity in Prefrontal cortex / Radioactivity in Skeletal muscle / Radioactivity in Skin / Radioactivity in Sm. intestine content / Radioactivity in Small intestine / Radioactivity in Somatosensory cortex / Radioactivity in Spleen / Radioactivity in Stomach / Radioactivity in Striata / Radioactivity in Superior collicull / Radioactivity in Testis / Radioactivity in Thalamus / Radioactivity in Visual cortex / Radioactivity in Plasma / Radioactivity in Whole blood / Radioactivity in Urine: i.v.; for Radioactivity in Plasma / Radioactivity in Whole blood: composite curve of 9 rats
Description: Sixteen adult male Sprague-Dawley rats (body weight 250-320 g: mean±SD=288±25 g) were used in 5 separate experiments. Each rat was injected with ˜13 MBq Compound 1, at a specific activity of […], via a previously catheterised tail vein. The associated stable compound was 0.5±0.2 nmol/kg. Discrete samples of arterial blood were collected from 9 of the rats via a previously catheterised tail artery.
Tissues were sampled post-mortem using an established protocol, as described in Hirani et al, Synapse 42:164-176 (2001). The radioactivity concentration data obtained at 12 times up to 90 min after radioligand injection were normalised for both amount injected and body weight, giving:—‘uptake units’=(cpm/g tissue)/(injected cpm/g body weight).

CSc1cccc(N([11CH3])C(=N)Nc2cc(SC)ccc2Cl)c1 [Compound 1, (N-(2-chloro-5-(methylthio)phenyl)-N′-(3-methylthio)phenyl)-N′-[N-methyl-^11C]-methylguanidine]
extraction of radioactivity into the brain (following intravenous injection): high extraction | Radioactivity in Cerebellum (1 min): 2.21 Uptake Units | Radioactivity in Entorhinal cortex (1 min): 1.92 Uptake Units | Radioactivity in Fat (1 min): 0.15 Uptake Units | Radioactivity in Heart (ventricle) (1 min): 10.4 Uptake Units | Radioactivity in Hippocampus (1 min): 1.61 Uptake Units | Radioactivity in Hypothalamus (1 min): 2.31 Uptake Units | Radioactivity in Inferior collicull (1 min): 3.42 Uptake Units | Radioactivity in Kidney (1 min): 12.5 Uptake Units | Radioactivity in Large intestine (1 min): 2.71 Uptake Units | Radioactivity in Lge. intestine content (1 min): 0.11 Uptake Units | Radioactivity in Liver (1 min): 2.48 Uptake Units | Radioactivity in Lung (1 min): 56.4 Uptake Units | Radioactivity in Medulla with Pons (1 min): 2.18 Uptake Units | Radioactivity in Olfactory bulbs (1 min): 2.34 Uptake Units | Radioactivity in Olfactory tubercles (1 min): 2.49 Uptake Units | Radioactivity in Prefrontal cortex (1 min): 2.52 Uptake Units | Radioactivity in Skeletal muscle (1 min): 1.07 Uptake Units | Radioactivity in Skin (1 min): 0.47 Uptake Units | Radioactivity in Sm. intestine content (1 min): 4.96 Uptake Units | Radioactivity in Small intestine (1 min): 3.38 Uptake Units | Radioactivity in Somatosensory cortex (1 min): 2.22 Uptake Units | Radioactivity in Spleen (1 min): 3.04 Uptake Units | Radioactivity in Stomach (1 min): 1.60 Uptake Units | Radioactivity in Striata (1 min): 2.13 Uptake Units | Radioactivity in Superior collicull (1 min): 2.42 Uptake Units | Radioactivity in Testis (1 min): 0.50 Uptake Units | Radioactivity in Thalamus (1 min): 2.59 Uptake Units | Radioactivity in Visual cortex (1 min): 2.46 Uptake Units | Radioactivity in Plasma (1 min): 0.51 Uptake Units | Radioactivity in Whole blood (1 min): 0.59 Uptake Units | Radioactivity in Cerebellum (2 min): 2.47 Uptake Units | Radioactivity in Entorhinal cortex (2 min): 2.13 Uptake Units | Radioactivity in Fat (2 min): 0.18 Uptake Units | Radioactivity in Heart (ventricle) (2 min): 8.20 Uptake Units | Radioactivity in Hippocampus (2 min): 1.73 Uptake Units | Radioactivity in Hypothalamus (2 min): 2.29 Uptake Units | Radioactivity in Inferior collicull (2 min): 3.65 Uptake Units | Radioactivity in Kidney (2 min): 10.8 Uptake Units | Radioactivity in Large intestine (2 min): 3.11 Uptake Units | Radioactivity in Lge. intestine content (2 min): 0.21 Uptake Units | Radioactivity in Liver (2 min): 1.65 Uptake Units | Radioactivity in Lung (2 min): 44.5 Uptake Units | Radioactivity in Medulla with Pons (2 min): 2.35 Uptake Units | Radioactivity in Olfactory bulbs (2 min): 2.50 Uptake Units | Radioactivity in Olfactory tubercles (2 min): 2.56 Uptake Units | Radioactivity in Prefrontal cortex (2 min): 2.73 Uptake Units | Radioactivity in Skeletal muscle (2 min): 1.14 Uptake Units | Radioactivity in Skin (2 min): 0.54 Uptake Units | Radioactivity in Sm. intestine content (2 min): 5.62 Uptake Units | Radioactivity in Small intestine (2 min): 3.87 Uptake Units | Radioactivity in Somatosensory cortex (2 min): 2.56 Uptake Units | Radioactivity in Spleen (2 min): 2.65 Uptake Units | Radioactivity in Stomach (2 min): 1.49 Uptake Units | Radioactivity in Striata (2 min): 2.33 Uptake Units | Radioactivity in Superior collicull (2 min): 2.64 Uptake Units | Radioactivity in Testis (2 min): 0.51 Uptake Units | Radioactivity in Thalamus (2 min): 2.41 Uptake Units | Radioactivity in Visual cortex (2 min): 2.71 Uptake Units | Radioactivity in Plasma (2 min): 0.37 Uptake Units | Radioactivity in Whole blood (2 min): 0.42 Uptake Units | Radioactivity in Cerebellum (5 min): 2.43 Uptake Units | Radioactivity in Entorhinal cortex (5 min): 2.16 Uptake Units | Radioactivity in Fat (5 min): 0.23 Uptake Units | Radioactivity in Heart (ventricle) (5 min): 4.27 Uptake Units | Radioactivity in Hippocampus (5 min): 2.00 Uptake Units | Radioactivity in Hypothalamus (5 min): 2.28 Uptake Units | Radioactivity in Inferior collicull (5 min): 3.23 Uptake Units | Radioactivity in Kidney (5 min): 8.70 Uptake Units | Radioactivity in Large intestine (5 min): 2.73 Uptake Units | Radioactivity in Lge. intestine content (5 min): 0.13 Uptake Units | Radioactivity in Liver (5 min): 2.95 Uptake Units | Radioactivity in Lung (5 min): 38.7 Uptake Units | Radioactivity in Medulla with Pons (5 min): 2.34 Uptake Units | Radioactivity in Olfactory bulbs (5 min): 2.18 Uptake Units | Radioactivity in Olfactory tubercles (5 min): 2.42 Uptake Units | Radioactivity in Prefrontal cortex (5 min): 2.67 Uptake Units | Radioactivity in Skeletal muscle (5 min): 1.32 Uptake Units | Radioactivity in Skin (5 min): 0.61 Uptake Units | Radioactivity in Sm. intestine content (5 min): 6.84 Uptake Units | Radioactivity in Small intestine (5 min): 3.17 Uptake Units | Radioactivity in Somatosensory cortex (5 min): 2.69 Uptake Units | Radioactivity in Spleen (5 min): 3.85 Uptake Units | Radioactivity in Stomach (5 min): 1.26 Uptake Units | Radioactivity in Striata (5 min): 2.35 Uptake Units | Radioactivity in Superior collicull (5 min): 2.59 Uptake Units | Radioactivity in Testis (5 min): 0.56 Uptake Units | Radioactivity in Thalamus (5 min): 2.59 Uptake Units | Radioactivity in Urine (5 min): 11.7 Uptake Units | Radioactivity in Visual cortex (5 min): 3.05 Uptake Units | Radioactivity in Plasma (5 min): 0.24 Uptake Units | Radioactivity in Whole blood (5 min): 0.26 Uptake Units | Radioactivity in Cerebellum (10 min): 2.08 Uptake Units | Radioactivity in Entorhinal cortex (10 min): 2.04 Uptake Units | Radioactivity in Fat (10 min): 0.50 Uptake Units | Radioactivity in Heart (ventricle) (10 min): 2.20 Uptake Units | Radioactivity in Hippocampus (10 min): 1.81 Uptake Units | Radioactivity in Hypothalamus (10 min): 2.13 Uptake Units | Radioactivity in Inferior collicull (10 min): 2.69 Uptake Units | Radioactivity in Kidney (10 min): 5.72 Uptake Units | Radioactivity in Large intestine (10 min): 1.92 Uptake Units | Radioactivity in Lge. intestine content (10 min): 0.17 Uptake Units | Radioactivity in Liver (10 min): 4.38 Uptake Units | Radioactivity in Lung (10 min): 35.3 Uptake Units | Radioactivity in Medulla with Pons (10 min): 2.26 Uptake Units | Radioactivity in Olfactory bulbs (10 min): 1.91 Uptake Units | Radioactivity in Olfactory tubercles (10 min): 2.14 Uptake Units | Radioactivity in Prefrontal cortex (10 min): 2.52 Uptake Units | Radioactivity in Skeletal muscle (10 min): 1.05 Uptake Units | Radioactivity in Skin (10 min): 0.70 Uptake Units | Radioactivity in Sm. intestine content (10 min): 5.31 Uptake Units | Radioactivity in Small intestine (10 min): 2.49 Uptake Units | Radioactivity in Somatosensory cortex (10 min): 2.49 Uptake Units | Radioactivity in Spleen (10 min): 4.31 Uptake Units | Radioactivity in Stomach (10 min): 0.82 Uptake Units | Radioactivity in Striata (10 min): 2.17 Uptake Units | Radioactivity in Superior collicull (10 min): 2.35 Uptake Units | Radioactivity in Testis (10 min): 0.66 Uptake Units | Radioactivity in Thalamus (10 min): 2.39 Uptake Units | Radioactivity in Urine (10 min): 10.9 Uptake Units | Radioactivity in Visual cortex (10 min): 2.80 Uptake Units | Radioactivity in Plasma (10 min): 0.19 Uptake Units | Radioactivity in Whole blood (10 min): 0.21 Uptake Units | Radioactivity in Cerebellum (15 min): 1.81 Uptake Units | Radioactivity in Entorhinal cortex (15 min): 1.93 Uptake Units | Radioactivity in Fat (15 min): 0.75 Uptake Units | Radioactivity in Heart (ventricle) (15 min): 1.63 Uptake Units | Radioactivity in Hippocampus (15 min): 1.74 Uptake Units | Radioactivity in Hypothalamus (15 min): 1.85 Uptake Units | Radioactivity in Inferior collicull (15 min): 2.22 Uptake Units | Radioactivity in Kidney (15 min): 4.78 Uptake Units | Radioactivity in Large intestine (15 min): 1.65 Uptake Units | Radioactivity in Lge. intestine content (15 min): 0.03 Uptake Units | Radioactivity in Liver (15 min): 6.87 Uptake Units | Radioactivity in Lung (15 min): 10.7 Uptake Units | Radioactivity in Medulla with Pons (15 min): 1.92 Uptake Units | Radioactivity in Olfactory bulbs (15 min): 1.72 Uptake Units | Radioactivity in Olfactory tubercles (15 min): 1.92 Uptake Units | Radioactivity in Prefrontal cortex (15 min): 2.32 Uptake Units | Radioactivity in Skeletal muscle (15 min): 1.07 Uptake Units | Radioactivity in Skin (15 min): 0.51 Uptake Units | Radioactivity in Sm. intestine content (15 min): 9.63 Uptake Units | Radioactivity in Small intestine (15 min): 2.79 Uptake Units | Radioactivity in Somatosensory cortex (15 min): 2.24 Uptake Units | Radioactivity in Spleen (15 min): 4.46 Uptake Units | Radioactivity in Stomach (15 min): 2.07 Uptake Units | Radioactivity in Striata (15 min): 1.92 Uptake Units | Radioactivity in Superior collicull (15 min): 2.01 Uptake Units | Radioactivity in Testis (15 min): 0.66 Uptake Units | Radioactivity in Thalamus (15 min): 2.21 Uptake Units | Radioactivity in Urine (15 min): 22.0 Uptake Units | Radioactivity in Visual cortex (15 min): 2.28 Uptake Units | Radioactivity in Plasma (15 min): 0.17 Uptake Units | Radioactivity in Whole blood (15 min): 0.19 Uptake Units | Radioactivity in Cerebellum (20 min): 1.45* Uptake Units | Radioactivity in Entorhinal cortex (20 min): 1.80 Uptake Units | Radioactivity in Fat (20 min): 0.40* Uptake Units | Radioactivity in Heart (ventricle) (20 min): 1.10* Uptake Units | Radioactivity in Hippocampus (20 min): 1.60 Uptake Units | Radioactivity in Hypothalamus (20 min): 1.67 Uptake Units | Radioactivity in Inferior collicull (20 min): 1.97 Uptake Units | Radioactivity in Kidney (20 min): 3.19* Uptake Units | Radioactivity in Large intestine (20 min): 1.27* Uptake Units | Radioactivity in Lge. intestine content (20 min): 0.28* Uptake Units | Radioactivity in Liver (20 min): 6.47* Uptake Units | Radioactivity in Lung (20 min): 14.0* Uptake Units | Radioactivity in Medulla with Pons (20 min): 1.68 Uptake Units | Radioactivity in Olfactory bulbs (20 min): 1.46 Uptake Units | Radioactivity in Olfactory tubercles (20 min): 1.73 Uptake Units | Radioactivity in Prefrontal cortex (20 min): 1.94* Uptake Units | Radioactivity in Skeletal muscle (20 min): 0.96* Uptake Units | Radioactivity in Skin (20 min): 0.68* Uptake Units | Radioactivity in Sm. intestine content (20 min): 6.08* Uptake Units | Radioactivity in Small intestine (20 min): 2.16* Uptake Units | Radioactivity in Somatosensory cortex (20 min): 2.03 Uptake Units | Radioactivity in Spleen (20 min): 3.26* Uptake Units | Radioactivity in Stomach (20 min): 0.67* Uptake Units | Radioactivity in Striata (20 min): 1.65* Uptake Units | Radioactivity in Superior collicull (20 min): 1.64 Uptake Units | Radioactivity in Testis (20 min): 0.73* Uptake Units | Radioactivity in Thalamus (20 min): 2.01 Uptake Units | Radioactivity in Urine (20 min): 10.7* Uptake Units | Radioactivity in Visual cortex (20 min): 2.07 Uptake Units | Radioactivity in Plasma (20 min): 0.17 Uptake Units | Radioactivity in Whole blood (20 min): 0.18 Uptake Units | Radioactivity in Cerebellum (30 min): 0.55 Uptake Units

Source: patent US7432397B2, “Imaging compounds” (Hammersmith Imanet Ltd., priority 2002, dated 2008)
